Assay results: patent US6984656B2, “Core modified porphyrins” (priority 2001, dated 2006)

What was measured:
[1] = Clearance from the serum by fluorescence; format: in vivo, mice; details: fluorescence measurements, post-injection
Method: BALB/c mice were treated with 5 mg/kg of photosensitizer 6 and the ear-swelling response (ESR) was determined at selected time-points.

[2] = Rate of photobleaching in phosphate-buffered saline; format: physicochemical; details: PBS; 570-750 nm light at 500 mW cm^−2; constant initial absorbance
Description: One limitation of PDT dosimetry is the rate of photobleaching of the photosensitizer, which can be problematic with Photofrin® and even more problematic with the bacteriochlorins and the chlorins (such as HPPH).

BALB/c mice = details: mouse, in vivo, 10 mg/kg
Colo-26 tumors = assay: PDT against implanted Colo-26 tumors in BALB/c mice; format: in vivo; details: 6 at 3.25 mg (3.0 μmol)/kg and 694-nm light
Method: Core-modified porphyrin 6 gave a PDT response in vivo with 694-nm light in BALB/c mice bearing Colo-26 tumors. Animals treated with photosensitizer 6 at 3.25 mg (3.0 μmol)/kg and light required 10.3±0.8 d to reach 400-mm^3 tumor volume, which was more than double the time for control animals (4.3±1.0 d) receiving neither drug nor light (P <0.01).
The animals were irradiated 4 h post-injection with 135 J cm^−2 of 694-nm red light from a dye laser (75 mW cm^−2 for 30 min). […] For comparison purposes, BALB/C mice bearing Colo-26 tumors were given 2.5 mg (4.0 μmol)/kg of Photofrin® as a 5% aqueous dextrose solution and were irradiated 24 h later with 135 J cm^−2 of 630-nm laser light at a power of 75 mW cm^−2 for PDT with Photofrin®.
Animals initially were given i.v. (tail vein) injections of sensitizer at various concentrations (0.05to 5.0 μmol/kg). Mice were restrained at various times thereafter without anesthesia in specially designed holders. Fischer 344 female rats were chemically restrained at various times thereafter. In both models, tumors or normal back skin were exposed to light from a xenon arc lamp with appropriate filters or to a dye laser tuned to the absorption maximum determined by in vivo reflectance measurements. Power density of delivered light typically fell in the range of 10-200 mW cm^−2 evenly distributed to a spot size of roughly 1.5 cm and measured by a radiometer. Several dose rates were explored to examine role/limitation of available oxygen on the photodynamic process. Intratumor temperatures were measured with an Omega HYP-O microthermocouple and, when necessary, a stream of nitrogen gas was used to keep intratumor temperatures below 37° C. Animals were examined and measured daily for the first 14 days post treatment and every other day thereafter until the tumors reached 400 mm^3 in mice or until the tumors double in size for Fischer 344 female rats or for 90 days. Tumor size were measured in two dimensions with a caliper. Time to 400 mm^3 or volume doubling times of tumors from control and PDT-treated groups (8-12 animals per group) were compared statistically using the SAS statistical program (SAS, Inc., Cary, N.C.). A P-value of <0.05 is considered significant. The degree of damage to the normal skin within the irradiation field also were noted. Disappearance of tumor with minimal damage to normal skin is the most desirable response. Animals are considered cured if no tumor regrowth occurs by 90 days. In all studies, three control groups were utilized in addition to the treatment group receiving both sensitizer and light: 1) a complete control receiving neither drug nor light, 2) a group receiving sensitizer only, and 3) a group receiving light only. Representative animals from each of the treatment groups were processed for histology immediately, one day, or two weeks after irradiation. Step sections through the tumor were used to define the boundaries of tumor cell damage and death as a function of distance from the skin surface.

Colo-26 cells = assay: Dark and light-induced toxicity toward Colo-26 cells in culture; format: cell-based, murine
Method: In order to compare relative phototoxicity, the core-modified porphyrins of Table 1 were evaluated in culture for dark and light-induced toxicities toward Colo-26 cells, a murine colon carcinoma cell line.

[3] = Tissue distribution by fluorescence in tumor-bearing BALB/c mice; details: mouse, in vivo
Method: At various times after sensitizer administration, animals were sacrificed and sensitizer levels determined by direct extraction. In tumor-bearing animals (BALB/c mice or female Fischer rats), the concentration of sensitizer was determined by fluorescence spectroscopy where possible. At various time points post-injection of 5 μmol/kg of sensitizer or 90% of the LD10 (whichever is smaller), tissues were removed, weighed, homogenized, and frozen in liquid nitrogen (3-5 animals per time point). The homogenate, after thawing, was taken up in Solvable and the emission from sensitizer was quantified in terms of ng of sensitizer/mg of protein. With non-fluorescent sensitizers, sensitizer content was quantified spectrophotometrically. Distribution ratios were expressed as the uptake or retention of sensitizer in tumor relative to various normal tissues. Intensified digital fluorescence microscopy and/or confocal microscopy on frozen sections of the tumors, which were prepared from samples specified for this purpose, enabled us to assess intratumor sensitizer distributions.

[4] = 5 mg (5 μmole)/kg of 6; BALB/c mice bearing Colo-26 tumors; cited from earlier work

Q: For “5,10,15,20-tetrakis(4-sulfonatophenyl)-21,23-dithiaporphyrin [Compound 6]”, which “time to clearance from the serum” value [1] is on record?
A: 7 days

Q: What about the “rate of photobleaching (kbleach)” value [2] of the same substance?
A: 0.84 ± 0.02 × 10^4 s^−1

Q: And the toxicity and morbidity (BALB/c mice)?
A: no toxicity, morbidity, or side effects were observed

Q: What about the “time to reach 400-mm^3 tumor volume” value (Colo-26 tumors) of the same substance?
A: 10.3 ± 0.8 days

Q: What about the EC50 (Colo-26 cells; 24 h incubation in dark, 4 J cm^−2 of 590-800 nm light, survival 24 h later, read-out: effective concentration to give 50% cell-kill of Colo-26 cells in vitro (EC50)) of the same substance?
A: 30 µM

Q: And the “dark toxicity toward Colo-26 cells” value (Colo-26 cells; dark, concentrations ≦100 μg/mL (≦100 μM))?
A: negligible dark toxicity

Q: What about the “tumor selectivity of uptake by fluorescence” value [3] of the same substance?
A: preferentially taken up by tumor

Q: What about the “concentration in tumor 24 h post-injection” value [4] of the same substance?
A: 0.019±0.007 μg/g of protein
